Laboratory results published in the NIST ThermoML archive (doi:10.1021/je900210h).

Conditions: Fluid (supercritical or subcritical phases), Coaxial cylinder method

FCC(F)(F)F [1,1,1,2-tetrafluoroethane]
Conditions | thermal conductivity [W/m/K]
394.57 K, 5176 kPa | 0.039
394.57 K, 6665 kPa | 0.0513
394.57 K, 6720 kPa | 0.0515
394.57 K, 6754 kPa | 0.0515
394.57 K, 6800 kPa | 0.0515
394.6 K, 5055 kPa | 0.0374
394.68 K, 7457 kPa | 0.0533
394.68 K, 7521 kPa | 0.0535
394.68 K, 7635 kPa | 0.0537
394.69 K, 7159 kPa | 0.0526
394.69 K, 7321 kPa | 0.0528
394.81 K, 7706 kPa | 0.0538
394.81 K, 7827 kPa | 0.0541
394.88 K, 4950 kPa | 0.036
394.88 K, 4978 kPa | 0.0363
394.89 K, 4890 kPa | 0.0353
394.91 K, 4821 kPa | 0.0346
394.93 K, 4722 kPa | 0.0335
394.94 K, 4649 kPa | 0.0328
394.95 K, 4583 kPa | 0.0322
395.23 K, 4495 kPa | 0.0315
395.24 K, 4405 kPa | 0.0309
403.68 K, 7203 kPa | 0.0484
403.69 K, 7105 kPa | 0.048
403.69 K, 7364 kPa | 0.049
403.82 K, 6973 kPa | 0.0475
403.83 K, 6852 kPa | 0.0468
404.23 K, 6723 kPa | 0.046
404.23 K, 6754 kPa | 0.0461
404.34 K, 6434 kPa | 0.044
404.34 K, 6516 kPa | 0.0446
404.36 K, 6559 kPa | 0.0449
404.36 K, 6640 kPa | 0.0453
404.38 K, 6342 kPa | 0.0433
404.4 K, 6039 kPa | 0.041
404.4 K, 6080 kPa | 0.0413
404.42 K, 5967 kPa | 0.0402
404.43 K, 5860 kPa | 0.0393
404.43 K, 5908 kPa | 0.0396
404.44 K, 5814 kPa | 0.0388
404.45 K, 5750 kPa | 0.0383
404.46 K, 5668 kPa | 0.0375
404.47 K, 5579 kPa | 0.0368
404.48 K, 5494 kPa | 0.0361
404.49 K, 5419 kPa | 0.0355
404.5 K, 5330 kPa | 0.0349
404.51 K, 5242 kPa | 0.0342
404.65 K, 5162 kPa | 0.0336
404.67 K, 5039 kPa | 0.0329
404.68 K, 4909 kPa | 0.0321
404.7 K, 4754 kPa | 0.0312
404.71 K, 4641 kPa | 0.0307
404.73 K, 4451 kPa | 0.0298
404.73 K, 4467 kPa | 0.0298
404.73 K, 4523 kPa | 0.0301
404.76 K, 4201 kPa | 0.0287
404.76 K, 4278 kPa | 0.029
404.77 K, 4070 kPa | 0.0283
405.05 K, 3914 kPa | 0.0278
405.06 K, 3790 kPa | 0.0274
405.07 K, 3698 kPa | 0.0271
405.25 K, 2700 kPa | 0.0252
405.25 K, 2863 kPa | 0.0254
405.26 K, 2524 kPa | 0.0249
405.27 K, 2343 kPa | 0.0247
405.34 K, 3411 kPa | 0.0264
405.46 K, 8835 kPa | 0.0521
405.47 K, 8558 kPa | 0.0515
405.48 K, 7814 kPa | 0.0499
405.49 K, 7506 kPa | 0.049
405.81 K, 1930 kPa | 0.0243
406.09 K, 1196 kPa | 0.0236
406.88 K, 18500 kPa | 0.0652
406.9 K, 16345 kPa | 0.063
406.91 K, 15679 kPa | 0.0623
406.93 K, 14350 kPa | 0.0608
406.94 K, 13921 kPa | 0.0603
406.96 K, 12915 kPa | 0.0591
406.99 K, 11426 kPa | 0.0569
407 K, 10911 kPa | 0.0562
407.01 K, 10638 kPa | 0.0557
426.86 K, 160 kPa | 0.02469
436.44 K, 180 kPa | 0.02542
446.25 K, 200 kPa | 0.02665
446.25 K, 760 kPa | 0.02661
451.17 K, 180 kPa | 0.02683
455.69 K, 100 kPa | 0.0268
455.92 K, 680 kPa | 0.02719
466.31 K, 650 kPa | 0.02846
476.24 K, 100 kPa | 0.02922
496.18 K, 100 kPa | 0.0311
515.97 K, 100 kPa | 0.03304
